The pEC50 is the EC50 on a negative log10 scale, so that one unit is a factor of ten.

The source of these data is patent US20250099420A1, “SMALL MOLECULE MODULATORS OF GPR139 COMPLEX” (University of Florida Research Foundation, Incorporated, priority 2022, published 2025).

For one data set, the system named is parental HEK cells. Description: HEK parental Agonist Counterscreen Assay (non-transfected cells). Format: cell-based. The conditions noted are these: for Averaged Max % Response (±St. Dev.): activity relative to known control. The source says:
The high control for the agonist counterscreen was Forskolin not acetylcholine.

The target of another data set is T1, GPR139 (Homo sapiens, UniProt Q6DWJ6).
T1 sequence (Q6DWJ6 1-353): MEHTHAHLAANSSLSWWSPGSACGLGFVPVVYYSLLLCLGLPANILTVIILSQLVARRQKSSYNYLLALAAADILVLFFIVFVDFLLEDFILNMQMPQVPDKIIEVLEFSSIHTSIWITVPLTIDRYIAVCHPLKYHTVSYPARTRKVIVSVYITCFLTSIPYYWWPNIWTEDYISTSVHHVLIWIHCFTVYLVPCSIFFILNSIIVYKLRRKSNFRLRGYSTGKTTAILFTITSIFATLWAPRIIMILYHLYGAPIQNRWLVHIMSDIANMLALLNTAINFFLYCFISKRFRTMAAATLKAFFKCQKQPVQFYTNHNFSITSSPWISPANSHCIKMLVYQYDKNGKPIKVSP
Description: GPR139 Agonist titration / agonist counterscreen assay (calcium detection, HEK-GPR139 cells). The settings on record: GPR139 Agonist Activity; for pEC50: read-out: EC50; for Averaged Max % Response (±St. Dev.): activity relative to known control. In kind it is cell-based. Set-up: expressed in transfected cells; host or cells: HEK Aequorin cells, Maxcyte transient transfection. The method, then: GPR activity was assessed using a calcium detection assay. […] Negative control samples were treated with DMSO. […] Intracellular calcium was measured using Calcium 5.
A general note: Counterscreens check selectivity or assay interference.

[1] abbreviates: Homo sapiens, HEK293, HEK Agonist Activity section of Table 4 (parental HEK counterscreen).
[2] abbreviates: Homo sapiens, HEK293, HEK Agonist Activity, parental non-transfected HEK cells.
The mark [3] stands for this setting: values printed in E-notation without unit.

The structures appear in SMILES notation. pEC50: −log10 of the molar value. Where two headings read alike, the source gives them in different places.

Take `Cn1c(CCc2ccc(F)cc2F)nnc1C1=C(O)N=C2CC=CC21` (stereo not shown) [SR-01000922914]: in the data set with parental HEK cells (HEK Agonist Activity section), the “Lipophilic Efficiency (logD)” value was 0.70, the “Lipophilic Efficiency (logP)” value stood at 0.70 and the “Averaged Max % Response (±St. Dev.)” value is listed as −4.64 ± 6.81%. The pEC50 in the data set with parental HEK cells (setting [1]) was less than 4.85. For the same compound, on GPR139, the “Efficiency Ligand” value worked out at 0.36, the “Hill Slope” value is 0.68, the “Lipophilic Efficiency (logD)” value turned out to be 2.32 and the “Lipophilic Efficiency (logP)” value is given as 2.32. For the same compound, on GPR139, the “Averaged Max % Response (±St. Dev.)” value was determined as 76.15 ± 6.21%. For the same compound, on GPR139 (HEK-GPR139 cells), the pEC50 was 6.47.

On to `COc1ccc(CCNC(=O)Nc2ccc3c(c2)CCCN3C(=O)C2CC2)cc1` [SR-01000923125], for which the “Lipophilic Efficiency (logD)” value came out at 1.53 in the data set with parental HEK cells (HEK Agonist Activity) and 4.30 at GPR139 (based on logD). For the same compound, the “Lipophilic Efficiency (logP)” value was 1.53 in the data set with parental HEK cells (HEK Agonist Activity) and 4.30 at GPR139 (based on logP). Moreover, the “Averaged Max % Response (±St. Dev.)” value in the data set on parental HEK cells (HEK Agonist Activity) worked out at 32.19 ± 4.93%; on GPR139, 81.24 ± 9.74%. Moreover, the pEC50 in the data set on parental HEK cells (setting [2]) was less than 4.85; at GPR139 (setting [3]) it was 7.63. Besides, the “Hill Slope” value on GPR139 (fitted dose-response curve) is 2.01. Moreover, the “Efficiency Ligand” value at GPR139 (ligand efficiency) worked out at 0.37.

As to `CCCN1C(=O)CCc2cc(NC(=O)NCCc3ccc(OC)cc3)ccc21` [SR-01000923206], in the data set on parental HEK cells (HEK Agonist Activity section), the “Lipophilic Efficiency (logD)” value came out at 1.61, the “Lipophilic Efficiency (logP)” value was 1.61 and the “Averaged Max % Response (±St. Dev.)” value is given as −32.47 ± 4.02%. The pEC50 with parental HEK cells (HEK Agonist Activity section of Table 4 (parental HEK counterscreen)) was less than 4.85. Besides, on GPR139, the “Efficiency Ligand” value is recorded as 0.31, the “Hill Slope” value was found to be 1.67, the “Lipophilic Efficiency (logD)” value is 2.98 and the “Lipophilic Efficiency (logP)” value is given as 2.98. Also, the “Averaged Max % Response (±St. Dev.)” value at GPR139 is recorded as 74.00 ± 9.00%. For the same compound, the pEC50 on GPR139 (HEK-GPR139 cells) was 6.22.

With `Cc1cccc(NC(=O)NCCc2ccc3c(c2)CCCN3C)c1` [SR-01000923247], the “Lipophilic Efficiency (logD)” value in the data set with parental HEK cells (HEK Agonist Activity) came to 0.63; at GPR139 (based on logD) it was 3.21. Besides, the figures for the “Lipophilic Efficiency (logP)” value with parental HEK cells (HEK Agonist Activity) and on GPR139 (based on logP) were 0.63 and 3.21, respectively. Also, the “Averaged Max % Response (±St. Dev.)” value was 20.62 ± 4.90% with parental HEK cells (HEK Agonist Activity) and 95.66 ± 12.25% at GPR139. Besides, the pEC50 is less than 4.85 in the data set with parental HEK cells (setting [2]) and 7.43 on GPR139 (setting [3]). Moreover, the “Hill Slope” value at GPR139 (fitted dose-response curve) worked out at 0.45. Further, on GPR139 (ligand efficiency), the “Efficiency Ligand” value stood at 0.43.

For `COc1cc(NC(=O)NCCc2ccc3c(c2)CCCN3C)cc(OC)c1` [SR-01000923249], the “Lipophilic Efficiency (logD)” value stood at 1.46 in the data set on parental HEK cells (HEK Agonist Activity section) and 3.81 at GPR139 (based on logD). Besides, the results for the “Lipophilic Efficiency (logP)” value in the data set with parental HEK cells (HEK Agonist Activity section) and at GPR139 (based on logP) were 1.46 and 3.81, respectively. Also, the figures for the “Averaged Max % Response (±St. Dev.)” value in the data set on parental HEK cells (HEK Agonist Activity section) and on GPR139 were 25.04 ± 3.96% and 93.59 ± 4.95%, respectively. The pEC50 in the data set on parental HEK cells (setting [1]) was less than 4.85; at GPR139 (setting [3]), 7.20. Moreover, the “Hill Slope” value at GPR139 (fitted dose-response curve) stood at 0.82. In addition, on GPR139 (ligand efficiency), the “Efficiency Ligand” value was 0.37.

As to `CCN1CCCc2cc(CCNC(=O)Nc3ccccc3)ccc21` [SR-01000923250], in the data set with parental HEK cells (HEK Agonist Activity section), the “Lipophilic Efficiency (logD)” value came to 0.79, the “Lipophilic Efficiency (logP)” value came out at 0.79 and the “Averaged Max % Response (±St. Dev.)” value is on record as −2.96 ± 8.90%. In addition, the pEC50 in the data set on parental HEK cells (setting [1]) is less than 4.85. On GPR139, the “Efficiency Ligand” value came out at 0.35, the “Hill Slope” value was determined as 0.64, the “Lipophilic Efficiency (logD)” value is 1.87 and the “Lipophilic Efficiency (logP)” value was determined as 1.86. Also, the “Averaged Max % Response (±St. Dev.)” value on GPR139 came out at 67.60 ± 3.63%. In addition, the pEC50 on GPR139 (HEK-GPR139 cells) is 5.92.

Regarding `CCCC(=O)C1CCC(C(=O)CC2CCC(c3ccc(C(C)O)cc3)C2=O)CC1` (stereo not shown) [SR-01000924775], in the data set with parental HEK cells (HEK Agonist Activity section), the “Lipophilic Efficiency (logD)” value was 3.42, the “Lipophilic Efficiency (logP)” value was determined as 3.42 and the “Averaged Max % Response (±St. Dev.)” value came out at 10.92 ± 3.68%. Further, the pEC50 in the data set with parental HEK cells (setting [1]) was less than 4.85. Moreover, on GPR139, the “Efficiency Ligand” value is listed as 0.31, the “Hill Slope” value is reported as 0.79, the “Lipophilic Efficiency (logD)” value is given as 4.98 and the “Lipophilic Efficiency (logP)” value was 4.98. Also, the “Averaged Max % Response (±St. Dev.)” value on GPR139 is recorded as 69.93 ± 11.99%. For the same compound, the pEC50 at GPR139 (HEK-GPR139 cells) is 6.41.
